Experimental data reported in patent publication US20130116326A1, “TREATMENT OF DELAYED CUTANEOUS HYPERSENSITIVITY CONDITIONS WITH S-FARNESYLTHIOSALICYLIC ACID AND ANALOGS THEREOF” (RAMOT AT TEL-AVIV UNIVERSITY LTD., priority 2010, published 2013).
Entries after “also recorded” stand apart in the source; their conditions may differ.

How the values were obtained:
[1] = system: Ras; assay: Ras GTP loading in Panc-1 cells; type: cell-based; conditions: FIG. 6, also as previously reported (ref. 16)
Procedure: (§1) Jurkat T cells were obtained from the American Type Culture Collection (ATCC) (Manassas, VA). The cells were maintained in RPMI 1640 supplemented with 10% FCS, 2 mM 1-glutamine, and 1% penicillin/streptomycin (Biological Industries, Kibutz Beit Haemek, Israel). Panc-1 cells (ATCC) were grown in Dulbecco's modified Eagle medium (DMEM) containing 10% FCS, 2 mM 1-glutamine, and 1% penicillin/streptomycin. The cells were incubated at 37° C. in a humidified atmosphere of 95% air and 5% CO2. Transfection of Jurkat cells was performed with DMRIE-C (Invitrogen, Carlsbad, Calif.), and cells were examined 24 to 48 hours later. Jurkat T cells were serum starved at 37° C. for 2 to 6 hours, followed by stimulation with 5 μg/ml of mouse anti-human CD3.
(§2) Detection of activated Ras and Rap1 was performed as described previously (4, 9).
(§3) Since FTS is known to inhibit Ras, experiments were designed to determine whether the mechanism of Rap1 inhibition by FTS analogs is indirect and mediated by Ras inhibition. Applicants compared the inhibitory profile of FTS and its analogs on both Ras GTP loading and Rap1 GTP loading in Panc-1 cells (FIG. 6B). […] J Med Chem 2009; 52:197-205]. […] Thus, the extent of Ras and Rap1 inhibition by FTS and its analogs is not identical.

[2] = system: Rap1; assay: Rap1 GTP loading in Panc-1 cells; type: cell-based; conditions: for inhibition of Rap1 GTP loading: Panc-1 cells, FIG. 6A; for selectivity between Ras and Rap1: profile of inhibition Ras versus Rap1
Procedure: as §1, §2, §3

[3] = system: Rap1; assay: GST pull-down of GTP.Rap1 (Rap1 GTP loading) in Jurkat T cells; type: cell-based, human; conditions: for lowering of the amount of GTP.Rap1: Jurkat T cells treated overnight, then stimulated with anti CD3 antibodies for 10 minutes, FIG. 1C; for amount of GTP.Rap1 compared with untreated cells: quiescent Jurkat T cells, treated overnight, 50 μM, FIG. 1A; for ability to inhibit Rap1 activation, comparison among agents: 50 μM overnight
Procedure: as §1, §2
Samples were separated by SDS-PAGE using 10% polyacrylamide gels and transferred to nitrocellulose filters. Blots were blocked for 1 hour in TBST (10 mM Tris-HCl (pH 8.0), 150 mM NaCl, and 0.05% Tween 20) containing 3% serum bovine albumin, followed by overnight incubation at 4° C. with the primary antibodies. Blots were washed and incubated for 1 hour at room temperature with HRP-conjugated secondary antibodies. Immunoreactive bands were visualized using the LAS-3000 imaging system (Fujifilm Corp., Tokyo).
The experiments were designed to determine whether FTS and its analogs are able to inhibit GTP loading of Rap1. Quiescent Jurkat T cells were treated overnight with FTS, FTS-A, and FTS-MOM, each at a concentration of 50 μM. Cells were collected and the quantity of GTP.Rap1 was determined by pull-down assay. Compared with untreated cells (control), the amount of GTP.Rap1 decreased in all conditions (FIG. 1A). […] Since Rap1 is activated in T cells as a result of crosslinking the antigen receptor, the effect of FTS, and its analogs, on Rap1 activation in stimulated T cells, was studied. Cells were treated with FTS and its analogs overnight, and subsequently stimulated with anti CD3 antibodies for 10 minutes. […] FTS lowered the amount of GTP.Rap1 by 32%, while FTS-A and FTS-MOM lowered it by 60% and 53%, respectively (FIG. 1C). Thus, FTS and its analogs are able to inhibit Rap1 activation in T cells stimulated through the antigen receptor.

[4] = system: contact sensitivity reaction to DNFB; assay: Contact sensitivity to DNFB, ear swelling in mice; type: in vivo, BALB/c female mice
Procedure: The Institutional Ethics Committee of Tel Aviv University approved the study. BALB/c female mice at 8 to 10 weeks of age were used. Oral administration of FTS-A required doses of 50 and 100 mg/kg (10). The compound 2,4-dinitro-l-fluorobenzene (DNFB) and olive oil were obtained from Sigma-Aldrich (St. Louis, Mo.). Mice were sensitized on the shaved abdomen with 50 μl of 0.5% DNFB in a vehicle of 4:1 acetone:olive oil. Mice were ear challenged with 20 μl t of 0.2% DNFB in a vehicle of 4:1 acetone:olive oil after 5 days. A constant area of the ears was measured immediately before challenge and 24 hours later with an engineer's micrometer (Ozaki Mfg. Co., Itabashi, Tokyo). Ear swelling was expressed as the difference in ear thickness before and after the challenge (11).
Next, the ability of FTS-A to inhibit Rap-1-dependent T cell adhesion in vivo was investigated by using contact sensitivity (15) as a model system. Animals were treated orally with two different concentrations of FTS-A (50 mg/kg and 100 mg/kg). […] When treatment was introduced only during the challenge phase (days 5-6), ear swelling was also attenuated.

[5] = system: T cells; assay: Viable cell count by tryptan blue exclusion; type: cell-based; conditions: various concentrations for 72 hours, higher doses, FIG. 3A
Procedure: Thus, this analog was used for further experiments. First, […] were treated with various concentrations of FTS-A for 72 hours.

[6] = system: Rap1; assay: Confocal microscopy of Rap1 localization and activation in Jurkat T cells; type: cell-based, human
Procedure: Live cells were plated in 35-mm dishes containing a no. 0 glass coverslip over a 15-mm cutout (MatTek, Ashland, Mass). Cells were maintained at 37° C. using a PDMI-2 microincubator (Harvard Apparatus, Holliston, Mass.). Individual cells were imaged before and after addition of stimuli. Images were acquired with a Zeiss 510 inverted laser scanning confocal microscope (Carl Zeiss Microlmaging, Inc., Thornwood, N.Y.) and processed with Adobe Photoshop CS.
It has been reported that only the pool of Rap1 at the plasma membrane becomes GTP bound on lymphocyte activation (9). The following experiments were designed to study whether Rap1 inhibition by FTS-A is indeed restricted to that compartment. Jurkat T cells, expressing GFP tagged Rap1, were subjected to various agents (FIG. 4A), whereas the localization of Rap1 was recorded by confocal microscopy.
The effects of FTS are rather specific to the active GTP-bound forms of Ras proteins (7). To investigate the possible effect of FTS-A on localization of the active Rap1, the probe for activated Rap1, GFP-RBDRALGDS (13), was utilized. […] In cells that were pretreated by FTS-A, the activation of Rap1 at the plasma membrane was blocked (FIG. 4B) although Rap1 remained associated with the plasma membrane (FIG. 4A). Thus, the pool of Rap1 that is inhibited by FTS-A is found at the plasma membrane.

[7] = system: Rap1; assay: Rap1 inhibition by geranylgeranyl analogue (data not shown)

Which “inhibition of Ras GTP loading” value [1] does the source give for CC(C)=CCC/C(C)=C/CC/C(C)=C/CSc1ccccc1C(=O)O [FTS, S-trans,trans-farnesylthiosalicylic acid] here?
Its value is “comparable to FTS-A”.

And the “inhibition of Rap1 GTP loading” value [2]?
Its value is “relatively modest”.

And the “selectivity between Ras and Rap1” value [2]?
The value was “relatively high selectivity of FTS towards Ras”.

And the “lowering of the amount of GTP.Rap1” value [3]?
The value was 32%.

And the “amount of GTP.Rap1 compared with untreated cells” value [3]?
The value was “decreased”.

What about the “activation phase of delayed cutaneous hypersensitivity in vivo” value ([4]; summary statement) of the same compound?
The value was “inhibits”.

For CC(C)=CCCC(C)=CCCC(C)=CCSc1ccccc1C(N)=O [FTS-A, FTS-amide], which “number of viable cells” value [5] is on record?
Its value is “decreased”.

And the “inhibition of Rap1 GTP loading” value [2]?
Its value is “much greater inhibitory activity toward Rap1 than FTS”.

And the “selectivity between Ras and Rap1” value [2]?
Its value is “inhibited both Ras and Rap1”.

And the “lowering of the amount of GTP.Rap1” value [3]?
Its value is 60%.

What about the “ability to inhibit Rap1 activation, comparison among agents” value ([3]; Jurkat T cells) of the same compound?
Its value is “superior to FTS; also recorded: greatest amount of Rap1 inhibition”.

What about the “inhibitory effect on Rap1 when Ras is knocked down” value ([3]; Jurkat T cells, N-Ras and K-Ras knocked down via shRNA, FIG. 6B) of the same compound?
The value was “unchanged”.

What about the “amount of GTP.Rap1, dose-response” value ([3]; higher doses of FTS-A, FIG. 3B) of the same compound?
The value was “further diminished”.

What about the “amount of GTP.Rap1 compared with untreated cells” value [3] of the same compound?
The value was “decreased”.

What about the “development of contact sensitivity reaction to DNFB” value ([4]; animal models, dose not given) of the same compound?
The value was “strongly inhibited”.

And the ear swelling ([4]; oral, 50 mg/kg, FIG. 5A)?
Its ear swelling is “only the higher concentration of FTS-A was able to inhibit ear swelling”.

What about the ear swelling ([4]; oral, 100 mg/kg, FIG. 5A) of the same compound?
The ear swelling was “able to inhibit ear swelling”.

What about the ear swelling ([4]; treatment during the sensitization phase (days 0-2), FIG. 5B) of the same compound?
The ear swelling was “did not prevent ear swelling”.

What about the ear swelling ([4]; treatment only during the challenge phase (days 5-6), FIG. 5B) of the same compound?
The ear swelling was “attenuated”.

What about the “activation of Rap1 at the plasma membrane” value ([6]; GFP-RBDRALGDS probe, pretreated cells stimulated through the antigen receptor, FIG. 4B) of the same compound?
Its value is “blocked”.

And the “localization of overexpressed Rap1” value ([6]; Jurkat T cells expressing GFP tagged Rap1, treatment up to 72 hours, FIG. 4A)?
Its value is “did not change”.

And the “localization of Rap-1” value ([6]; combined treatment with Bryostatin-1 and FTS-A, FIG. 4A)?
The value was “did not change”.

With CC(C)=CCC/C(C)=C/CC/C(C)=C/CC/C(C)=C/CSc1ccccc1C(=O)O [GGTS] as the compound, how does the “Rap1 inhibition compared with FTS analogs” value [7] read?
Its value is “did not prove to be a stronger Rap1 inhibitor”.

For COCOC(=O)c1ccccc1SCC=C(C)CCC=C(C)CCC=C(C)C [FTS-MOM, methoxymethyl S-farnesylthiosalicylate], which “inhibition of Ras GTP loading” value [1] is on record?
The value was “weak Ras inhibitor; also recorded: only a minor inhibitory effect”.

And the “inhibition of Rap1 GTP loading” value [2]?
Its value is “by far the stronger Rap1 inhibitor; also recorded: strong Rap1 inhibitor”.

What about the “selectivity between Ras and Rap1” value [2] of the same compound?
The value was “toward Rap1”.

What about the “lowering of the amount of GTP.Rap1” value [3] of the same compound?
Its value is 53%.

And the “ability to inhibit Rap1 activation, comparison among agents” value ([3]; Jurkat T cells)?
The value was “superior to FTS”.

And the “amount of GTP.Rap1 compared with untreated cells” value [3]?
The value was “decreased”.
